{"source": "PubChem BioAssay AID1259411", "about": "(Chemical Carcinogenesis Research Information System (CCRIS), 2018)", "test_system": "rodent carcinogenicity bioassays, tumor incidence", "assay": "CCRIS carcinogenicity studies", "in_short": "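NCI-built, expert-reviewed records of carcinogenicity and related test outcomes (mutagenicity, tumor promotion/inhibition) compiled from published and report sources, historical span 1985-2011, not updated.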", "note": "Active and inactive are the calls of the source. How the calls were made is not given here."}
{"smiles": "CC(/C=C/C=C(\\C)C(=O)O[C@@H]1O[C@H](CO[C@@H]2O[C@H](CO)[C@@H](O)[C@H](O)[C@H]2O)[C@@H](O)[C@H](O)[C@H]1O)=C\\C=C\\C=C(C)\\C=C\\C=C(/C)C(=O)O[C@@H]1O[C@H](CO[C@@H]2O[C@H](CO)[C@@H](O)[C@H](O)[C@H]2O)[C@@H](O)[C@H](O)[C@H]1O", "values": [{"measurement": "carcinogen call", "setting": "Species: MOUSE, Strain/Sex: C57BL/FEMALE, Route: ORAL, Dose: 0, 0.2, 0.8% IN DRINKING WATER FOR 95 WK (STUDY DURATION: 95 WK), Dose: 0, 0.2, 0.8% IN DRINKING WATER FOR 95 WK (STUDY DURATION: 95 WK)", "result": "inactive; negative"}, {"measurement": "carcinogen call", "setting": "Species: MOUSE, Strain/Sex: C57BL/MALE, Route: ORAL, Dose: 0, 0.2, 0.8% IN DRINKING WATER FOR 95 WK (STUDY DURATION: 95 WK), Dose: 0, 0.2, 0.8% IN DRINKING WATER FOR 95 WK (STUDY DURATION: 95 WK)", "result": "inactive; negative"}]}
{"smiles": "CC(O)CN(N=O)C(N)=O", "note": "(stereo unspecified)", "values": [{"measurement": "carcinogen call", "setting": "Species: HAMSTER, Strain/Sex: SYRIAN/FEMALE, Route: GAVAGE, Dose: 0, 16 MG/ML ((0.2 ML OF A SOLUTION IN ETHYL ACETATE/CORN OIL (1:2)) 1/WK FOR 24 WK (STUDY DURATION: LIFE SPAN), Tumor Site: Type of Lesion: LIVER: HEMANGIOSARCOMA, SPLEEN: HEMANGIOSARCOMA, FORESTOMACH: SQUAMOUS CELL CARCINOMA OR PAPILLOMA, Tumor Site: Type of Lesion: LIVER: HEMANGIOSARCOMA, SPLEEN: HEMANGIOSARCOMA, FORESTOMACH: SQUAMOUS CELL CARCINOMA OR PAPILLOMA", "result": "active; positive"}, {"measurement": "carcinogen call", "setting": "Species: RAT, Strain/Sex: F344/FEMALE, Route: GAVAGE, Dose: 0, 8 MG/ML (TOTAL DOSE 0; 0.4 MMOL) IN 2 ML ETHYL ACETATE AND CORN OIL (1:2) 2/WK FOR 18 WK (STUDY DURATION: LIFETIME), Dose: 0, 8 MG/ML (TOTAL DOSE 0; 0.4 MMOL) IN 2 ML ETHYL ACETATE AND CORN OIL (1:2) 2/WK FOR 18 WK (STUDY DURATION: LIFETIME), Tumor Site: Type of Lesion: THYMUS: LYMPHOMA", "result": "active; positive"}, {"measurement": "carcinogen call", "setting": "Species: RAT, Strain/Sex: F344/FEMALE, Route: GAVAGE, Dose: 0, 8 MG/ML IN 0.2 ML ETHYL ACETATE AND CORN OIL 2/WK FOR 18 WK (STUDY DURATION: LIFESPAN), Tumor Site: Type of Lesion: THYMUS: TUMOR", "result": "active; positive"}, {"measurement": "carcinogen call", "setting": "Species: RAT, Strain/Sex: F344/FEMALE, Route: INTRAVESICULAR, Dose: 0, 3.2 MG 2/WK FOR 30 WK (STUDY DURATION: LIFETIME), Tumor Site: Type of Lesion: BLADDER: TUMOR", "result": "active; positive"}, {"measurement": "carcinogen call", "setting": "Species: RAT, Strain/Sex: F344/MALE, Route: GAVAGE, Dose: 0, 8 MG/ML (TOTAL DOSE 0; 0.4 MMOL) IN 2 ML ETHYL ACETATE AND CORN OIL (1:2) 2/WK FOR 18 WK (STUDY DURATION: LIFETIME), Dose: 0, 8 MG/ML (TOTAL DOSE 0; 0.4 MMOL) IN 2 ML ETHYL ACETATE AND CORN OIL (1:2) 2/WK FOR 18 WK (STUDY DURATION: LIFETIME), Tumor Site: Type of Lesion: THYMUS: LYMPHOMA", "result": "active; positive"}, {"measurement": "carcinogen call", "setting": "Species: RAT, Strain/Sex: F344/MALE, Route: GAVAGE, Dose: 0, 8 MG/ML IN 0.2 ML ETHYL ACETATE AND CORN OIL 2/WK FOR 18 WK (STUDY DURATION: LIFESPAN), Tumor Site: Type of Lesion: THYMUS: TUMOR", "result": "active; positive"}]}
{"smiles": "c1ccc2c3c4c(cccc4cc2c1)CC3", "values": [{"measurement": "carcinogen call", "setting": "Species: MOUSE, Strain/Sex: BLU:HA/FEMALE, Route: INTRAPERITONEAL, Dose: 0, 175 UG/KG/D ON DAYS 1 (1/7 TOTAL DOSE), 8 (2/7 TOTAL DOSE), AND 15 (4/7 TOTAL DOSE) AFTER BIRTH (STUDY DURATION: 9 MO", "result": "inactive; negative"}, {"measurement": "carcinogen call", "setting": "Species: MOUSE, Strain/Sex: BLU:HA/MALE, Route: INTRAPERITONEAL, Dose: 0, 175 UG/KG/D ON DAYS 1 (1/7 TOTAL DOSE), 8 (2/7 TOTAL DOSE), AND 15 (4/7 TOTAL DOSE) AFTER BIRTH (STUDY DURATION: 9 MO", "result": "inactive; negative"}, {"measurement": "carcinogen call", "setting": "Species: MOUSE, Strain/Sex: CD-1/FEMALE, Route: INTRAPERITONEAL, Dose: 0, 175, 437.5, 875 UG/KG/D ON DAYS 1 (1/7 TOTAL DOSE), 8 (2/7 TOTAL DOSE), AND 15 (4/7 TOTAL DOSE) AFTER BIRTH (STUDY DU, Dose: 0, 175, 437.5, 875 UG/KG/D ON DAYS 1 (1/7 TOTAL DOSE), 8 (2/7 TOTAL DOSE), AND 15 (4/7 TOTAL DOSE) AFTER BIRTH (STUDY DU", "result": "inactive; negative"}, {"measurement": "carcinogen call", "setting": "Species: MOUSE, Strain/Sex: CD-1/MALE, Route: INTRAPERITONEAL, Dose: 0, 175, 437.5, 875 UG/KG/D ON DAYS 1 (1/7 TOTAL DOSE), 8 (2/7 TOTAL DOSE), AND 15 (4/7 TOTAL DOSE) AFTER BIRTH (STUDY DU, Dose: 0, 175, 437.5, 875 UG/KG/D ON DAYS 1 (1/7 TOTAL DOSE), 8 (2/7 TOTAL DOSE), AND 15 (4/7 TOTAL DOSE) AFTER BIRTH (STUDY DU, Tumor Site: Type of Lesion: LUNG: ADENOMA OR ADENOCARCINOMA", "result": "active; positive"}]}
{"smiles": "[N-]=[N+]=[N-]", "values": [{"measurement": "carcinogen call", "setting": "Species: RAT, Strain/Sex: F344/FEMALE, Route: GAVAGE, Dose: 0, 5, 10 MG/KG IN DISTILLED WATER 5 D/WK FOR 103 WK (STUDY DURATION: 2 YR), Dose: 0, 5, 10 MG/KG IN DISTILLED WATER 5 D/WK FOR 103 WK (STUDY DURATION: 2 YR)", "result": "inactive; negative"}, {"measurement": "carcinogen call", "setting": "Species: RAT, Strain/Sex: F344/MALE, Route: GAVAGE, Dose: 0, 5, 10 MG/KG IN DISTILLED WATER 5 D/WK FOR 103 WK (STUDY DURATION: 2 YR), Dose: 0, 5, 10 MG/KG IN DISTILLED WATER 5 D/WK FOR 103 WK (STUDY DURATION: 2 YR)", "result": "inactive; negative"}]}
{"smiles": "c1ccc2c(c1)ccc1[nH]c3ccc4ccccc4c3c12", "values": [{"measurement": "carcinogen call", "setting": "Species: HAMSTER, Route: INTRATRACHEAL, Tumor Site: Type of Lesion: LUNG", "result": "active; positive"}, {"measurement": "carcinogen call", "setting": "Species: MOUSE, Route: DERMAL, Tumor Site: Type of Lesion: INTEGUMENTARY SYSTEM (SKIN), LIVER", "result": "active; positive"}, {"measurement": "carcinogen call", "setting": "Species: MOUSE, Route: INTRAVENOUS, Tumor Site: Type of Lesion: LUNG", "result": "active; positive"}, {"measurement": "carcinogen call", "setting": "Species: MOUSE, Route: ORAL, Tumor Site: Type of Lesion: FORESTOMACH, LIVER, LUNG, Tumor Site: Type of Lesion: FORESTOMACH, LIVER, LUNG", "result": "active; positive"}, {"measurement": "carcinogen call", "setting": "Species: MOUSE, Route: SUBCUTANEOUS, Tumor Site: Type of Lesion: INJECTION SITE, LUNG", "result": "active; positive"}, {"measurement": "carcinogen call", "setting": "Species: MOUSE, Strain/Sex: HSD:ICR(BR)/FEMALE, Route: DERMAL, Dose: 0, 50 NMOL IN 50 µL ACETONE 2/WK FOR 99 WK (STUDY DURATION: 99 WK), Tumor Site: Type of Lesion: SKIN: TUMOR, LIVER: TUMOR", "result": "active; positive"}, {"measurement": "carcinogen call", "setting": "Species: MOUSE, Strain/Sex: STRAIN-A/MALE, Route: INTRAPERITONEAL, Dose: 0, 5, 10, 20, 40 MG/KG BW IN 0.2 ML TRICAPRYLIN ONCE (STUDY DURATION: 8 MO), Dose: 0, 5, 10, 20, 40 MG/KG BW IN 0.2 ML TRICAPRYLIN ONCE (STUDY DURATION: 8 MO), Tumor Site: Type of Lesion: LUNG: ADENOMA", "result": "active; positive"}, {"measurement": "carcinogen call", "setting": "Species: Mouse, Strain/Sex: XVIInc/Z homozygous/Female (50 or 162/Group), Route: Subcutaneous, Dose: 3 x 0.3 mg (162 animals) or 34 x 0.05 mg (50 animals) dissolved in olive oil, Tumor Site: Type of Lesion: Liver: Hepatoma (100%), Sarcoma (70%)", "result": "active; positive (historical controls only; reported incidence of liver tumors <2% at 2"}]}
{"smiles": "CC(C)O", "values": [{"measurement": "carcinogen call", "setting": "Species: MOUSE, Strain/Sex: CD-1/FEMALE, Route: INHALATION, Dose: 0, 500, 2500, 5000 PPM 6 HR/D 5 D/WK FOR 78 WK (STUDY DURATION: 78 WK), Dose: 0, 500, 2500, 5000 PPM 6 HR/D 5 D/WK FOR 78 WK (STUDY DURATION: 78 WK)", "result": "inactive; negative"}, {"measurement": "carcinogen call", "setting": "Species: MOUSE, Strain/Sex: CD-1/MALE, Route: INHALATION, Dose: 0, 500, 2500, 5000 PPM 6 HR/D 5 D/WK FOR 78 WK (STUDY DURATION: 78 WK), Dose: 0, 500, 2500, 5000 PPM 6 HR/D 5 D/WK FOR 78 WK (STUDY DURATION: 78 WK)", "result": "inactive; negative"}, {"measurement": "carcinogen call", "setting": "Species: RAT, Strain/Sex: F344/FEMALE, Route: INHALATION, Dose: 0, 500, 2500, 5000 PPM 6 HR/D 5 D/WK FOR 104 WK (STUDY DURATION: 104 WK), Dose: 0, 500, 2500, 5000 PPM 6 HR/D 5 D/WK FOR 104 WK (STUDY DURATION: 104 WK)", "result": "inactive; negative"}, {"measurement": "carcinogen call", "setting": "Species: RAT, Strain/Sex: F344/MALE, Route: INHALATION, Dose: 0, 500, 2500, 5000 PPM 6 HR/D 5 D/WK FOR 104 WK (STUDY DURATION: 104 WK), Dose: 0, 500, 2500, 5000 PPM 6 HR/D 5 D/WK FOR 104 WK (STUDY DURATION: 104 WK)", "result": "inactive; negative"}]}
